The text below walks through data of patent US8791102B2, “Acetanilide sphingosine-1-phosphate receptor antagonists” (Exelixis, Inc., priority 2008, dated 2014).

In general, IC50 refers to the concentration that inhibits the measured activity by half.

The target in this assay is T1, human S1P1 receptors (Homo sapiens, UniProt P21453).
T1 construct: host or cells: HEK293
Description: S1P1R antagonist assay (fluorescent membrane potential dye, cAMP readout). The assay is classed as cell-based. The following applies: HEK293 cells expressing human S1P1 receptors and CNG channel; 500 nM NECA; S1P1R agonist 10 nM; 90 minutes; read-out: EC50 or IC50 value.

T1 sequence (P21453 whole entry): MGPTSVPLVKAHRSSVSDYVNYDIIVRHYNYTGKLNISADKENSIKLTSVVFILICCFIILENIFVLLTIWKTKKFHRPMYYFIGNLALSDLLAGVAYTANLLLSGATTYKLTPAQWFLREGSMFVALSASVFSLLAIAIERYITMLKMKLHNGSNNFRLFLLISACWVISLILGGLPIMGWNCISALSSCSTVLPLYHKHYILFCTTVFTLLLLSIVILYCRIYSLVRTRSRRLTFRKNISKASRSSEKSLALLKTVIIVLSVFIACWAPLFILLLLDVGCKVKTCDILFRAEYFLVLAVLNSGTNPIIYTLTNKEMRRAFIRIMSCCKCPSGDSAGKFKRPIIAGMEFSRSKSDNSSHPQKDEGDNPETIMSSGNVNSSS

Regarding `C[C@@H](C(=O)NC(COCc1ccccc1)C(=O)Nc1ccc(Oc2ccccc2)cc1)c1ccccc1` (stereo partly drawn) [Compound 354, N-(2-oxo-1-{[(phenylmethyl)oxy]methyl}-2-{[4-(phenyloxy)phenyl]amino}ethyl)-2R-phenylpropanamide], the IC50 is 300 to 1000 nM.

For the molecule `O=C(NC(COCc1ccccc1)C(=O)Nc1ccc(Oc2ccccc2)cc1)c1ccsc1` (stereo not drawn) [Compound 389, N-(2-oxo-1-{[(phenylmethyl)oxy]methyl}-2-{[4-(phenyloxy)phenyl]amino}ethyl)thiophene-3-carboxamide], the IC50 lay in the range of 300 to 1000 nM.

`C#CCCC(=O)NC(COCc1ccccc1)C(=O)Nc1ccc(Oc2ccccc2)cc1` (stereo not drawn) [Compound 344, N-(2-oxo-1-{[(phenylmethyl)oxy]methyl}-2-{[4-(phenyloxy)phenyl]amino}ethyl)pent-4-ynamide]: the half-maximal inhibitory concentration (IC50) was over 1000 nM.

With `O=C(CN1CCN(c2ccccc2F)CC1)N[C@@H](COCc1ccccc1)C(=O)Nc1ccc(Oc2ccc(F)cc2)cc1` [Compound 127, (S)-3-(benzyloxy)-N-(4-(4-fluorophenoxy)phenyl)-2-(2-(4-(2-fluorophenyl)piperazin-1-yl)acetamido)propanamide], the IC50 was over 1000 nM.

As for `Cc1cc(CC(=O)N2C[C@H](Cc3ccccc3)C[C@H]2C(=O)Nc2ccc(Oc3ccc(F)cc3)cc2)n[nH]1` [Compound 177, (2S,4R)-4-benzyl-N-(4-(4-fluorophenoxy)phenyl)-1-(2-(5-methyl-1H-pyrazol-3-yl)acetyl)pyrrolidine-2-carboxamide], the IC50 was at most 300 nM.

For `O=C(CCC(=O)c1ccccc1)NC(COCc1ccccc1)C(=O)Nc1ccc(Oc2ccccc2)cc1` (stereo not drawn) [Compound 349, 4-oxo-N-(2-oxo-1-{[(phenylmethyl)oxy]methyl}-2-{[4-(phenyloxy)phenyl]amino}ethyl)-4-phenylbutanamide], the IC50 was in the range of 300 to 1000 nM.

As for `O=C(Nc1ccc(Oc2ccc(F)cc2)cc1)[C@@H]1C[C@@H](Cc2ccccc2)CN1C(=O)Cn1nccn1` [Compound 58, (2S,4R)-1-(2-(2H-1,2,3-triazol-2-yl)acetyl)-4-benzyl-N-(4-(4-fluorophenoxy)phenyl)pyrrolidine-2-carboxamide], the IC50 was at most 300 nM.

As to `COc1cc(OC)cc(C(=O)NC(COCc2ccccc2)C(=O)Nc2ccc(Oc3ccccc3)cc2)c1` (stereo not drawn) [Compound 316, 3,5-bis(methyloxy)-N-(2-oxo-1-{[(phenylmethyl)oxy]methyl}-2-{[4-(phenyloxy)phenyl]amino}ethyl)benzamide], the concentration for half-maximal inhibition (IC50) is over 1000 nM.

On to `O=C(Cc1cnccn1)N[C@@H](COCc1ccccc1)C(=O)Nc1ccc(Oc2ccc(F)cc2)cc1` [Compound 159, (S)-3-(benzyloxy)-N-(4-(4-fluorophenoxy)phenyl)-2-(2-(pyrazin-2-yl)acetamido)propanamide], for which the half-inhibitory concentration (IC50) is at most 300 nM.

In the case of `O=C(Cc1cccs1)N[C@@H](COCc1ccccc1)C(=O)Nc1ccc(Oc2ccccc2)cc1` [Compound 198, (S)-2-(2-(thien-2-yl)acetamido)-3-benzyloxy-N-(4-phenoxyphenyl)propanamide], the 50% inhibitory concentration (IC50) is 300 to 1000 nM.

On to `CCCCc1ccc(C(=O)NC(COCc2ccccc2)C(=O)Nc2ccc(Oc3ccccc3)cc2)nc1` (stereo not drawn) [Compound 378, 5-butyl-N-(2-oxo-1-{[(phenylmethyl)oxy]methyl}-2-{[4-(phenyloxy)phenyl]amino}ethyl)pyridine-2-carboxamide], for which the IC50 fell in the range of 300 to 1000 nM.

For `CC(=O)NC(COCc1ccccc1)C(=O)Nc1ccc(Oc2ccccc2)cc1` (stereo not drawn) [Compound 269, N-(2-oxo-1-{[(phenylmethyl)oxy]methyl}-2-{[4-(phenyloxy)phenyl]amino}ethyl)acetamide], the half-inhibitory concentration (IC50) lay in the range of 300 to 1000 nM.

In the case of `Cc1ccccc1C[C@@H]1C[C@@H](C(=O)Nc2ccc(Oc3ccc(F)cc3)cc2)N(C(=O)Cn2nccn2)C1` [Compound 48, (2S,4R)-1-(2-(2H-1,2,3-triazol-2-yl)acetyl)-N-(4-(4-fluorophenoxy)phenyl)-4-(2-methylbenzyl)pyrrolidine-2-carboxamide], the IC50 is at most 300 nM.

In the case of `Cc1ccc(C[C@@H]2C[C@@H](C(=O)Nc3ccc(Oc4ccc(F)cc4)cc3)N(C(=O)Cn3cncn3)C2)cc1` [Compound 4], the IC50 is at most 300 nM.

On to `O=C(NC(COCc1ccccc1)C(=O)Nc1ccc(Oc2ccccc2)cc1)c1ccccc1-n1cccc1` (stereo not drawn) [Compound 314, N-(2-oxo-1-{[(phenylmethyl)oxy]methyl}-2-{[4-(phenyloxy)phenyl]amino}ethyl)-2-(1H-pyrrol-1-yl)benzamide], for which the IC50 was over 1000 nM.

Take `CC(C)(C(=O)N[C@@H](COCc1ccc(F)cc1)C(=O)Nc1ccc(Oc2ccc(F)cc2)cc1)c1c[nH]cn1` [Compound 161, (S)-2-(2-(1H-imidazol-4-yl)-2-methylpropanamido)-3-(4-fluorobenzyloxy)-N-(4-(4-fluorophenoxy)phenyl)propanamide]: the IC50 was at most 300 nM.

Consider `O=C(Nc1ccc(Oc2ccc(F)cc2)cc1)[C@@H]1C[C@@H](Cc2ccc(Cl)cc2)CN1C(=O)Cn1ccnn1` [Compound 228, (2S,4R)-1-(2-(1H-1,2,3-triazol-1-yl)acetyl)-4-(4-chlorobenzyl)-N-(4-(4-fluorophenoxy)phenyl)pyrrolidine-2-carboxamide], for which the IC50 is at most 300 nM.

On to `O=C1CC[C@@H](C(=O)N2C[C@H](Cc3ccccc3)C[C@H]2C(=O)Nc2ccc(Oc3ccc(F)cc3)cc2)O1` [Compound 39, (2S,4R)-4-benzyl-N-(4-(4-fluorophenoxy)phenyl)-1-((S)-5-oxotetrahydrofuran-2-carbonyl)pyrrolidine-2-carboxamide], for which the IC50 was at most 300 nM.

Take `CC(=O)c1ccc(C(=O)NC(COCc2ccccc2)C(=O)Nc2ccc(Oc3ccccc3)cc2)cc1` (stereo not drawn) [Compound 396, 4-acetyl-N-(2-oxo-1-{[(phenylmethyl)oxy]methyl}-2-{[4-(phenyloxy)phenyl]amino}ethyl)benzamide]: the IC50 was over 1000 nM.

As for `O=C(Cc1cccc(OC(F)(F)F)c1)N[C@@H](COCc1ccccc1)C(=O)Nc1ccc(Oc2ccc(F)cc2)cc1` [Compound 102, (S)-3-(benzyloxy)-N-(4-(4-fluorophenoxy)phenyl)-2-(2-(3-(trifluoromethoxy)phenyl)acetamido)propanamide], the IC50 is over 1000 nM.

For the molecule `COc1ccc(CCC(=O)NC(COCc2ccccc2)C(=O)Nc2ccc(Oc3ccccc3)cc2)cc1OC` (stereo not drawn) [Compound 348, N-(2-oxo-1-{[(phenylmethyl)oxy]methyl}-2-{[4-(phenyloxy)phenyl]amino}ethyl)-3-(3,4-dimethoxyphenyl)propanamide], the IC50 fell in the range of 300 to 1000 nM.

On to `O=C(NC(COCc1ccccc1)C(=O)Nc1ccc(Oc2ccccc2)cc1)c1cccc2cccnc12` (stereo not drawn) [Compound 357, N-(2-oxo-1-{[(phenylmethyl)oxy]methyl}-2-{[4-(phenyloxy)phenyl]amino}ethyl)quinoline-8-carboxamide], for which the IC50 lay within 300 to 1000 nM.

On to `O=C(NC(COCc1ccccc1)C(=O)Nc1ccc(Oc2ccccc2)cc1)C1Cc2ccccc2C1` (stereo not drawn) [Compound 188, N-(3-(benzyloxy)-1-oxo-1-(4-phenoxyphenylamino)propan-2-yl)-2,3-dihydro-1H-indene-2-carboxamide], for which the IC50 lay within 300 to 1000 nM.

For the molecule `O=C(Nc1ccc(Oc2ccc(F)cc2)cc1)[C@@H]1CN(Cc2ccccc2)CCN1C(=O)Cc1cnc[nH]1` [Compound 175, (S)-1-(2-(1H-imidazol-4-yl)acetyl)-4-benzyl-N-(4-(4-fluorophenoxy)phenyl)piperazine-2-carboxamide], the 50% inhibitory concentration (IC50) is at most 300 nM.

`CS(=O)(=O)CC(=O)NC(COCc1ccccc1)C(=O)Nc1ccc(Oc2ccccc2)cc1` (stereo not drawn) [Compound 19, 3-(benzyloxy)-2-(2-(methylsulfonyl)acetamido)-N-(4-phenoxyphenyl)propanamide]: the IC50 was over 1000 nM.

Regarding `O=C(CN1CCC2CCCCC2C1)N[C@@H](COCc1ccccc1)C(=O)Nc1ccc(Oc2ccc(F)cc2)cc1` (stereo partly drawn) [Compound 222, (2S)-3-(benzyloxy)-N-(4-(4-fluorophenoxy)phenyl)-2-(2-(octahydroisoquinolin-2(1H)-yl)acetamido)propanamide], the IC50 lay in the range of 300 to 1000 nM.

As to `O=C(Cc1cccc(Br)c1)N[C@@H](COCc1ccccc1)C(=O)Nc1ccc(Oc2ccc(F)cc2)cc1` [Compound 244, (S)-3-(benzyloxy)-2-(2-(3-bromophenyl)acetamido)-N-(4-(4-fluorophenoxy)phenyl)propanamide], the concentration for half-maximal inhibition (IC50) was 300 to 1000 nM.

Take `O=C(Cc1c(F)ccc(F)c1F)NC(COCc1ccccc1)C(=O)Nc1ccc(Oc2ccccc2)cc1` (stereo not drawn) [Compound 361, N-(2-oxo-1-{[(phenylmethyl)oxy]methyl}-2-{[4-(phenyloxy)phenyl]amino}ethyl)-2-(2,3,6-trifluorophenyl)acetamide]: the IC50 is over 1000 nM.

With `CN(C)c1ccc(C(=O)NC(COCc2ccccc2)C(=O)Nc2ccc(Oc3ccccc3)cc2)cc1` (stereo not drawn) [Compound 294, 4-(dimethylamino)-N-(2-oxo-1-{[(phenylmethyl)oxy]methyl}-2-{[4-(phenyloxy)phenyl]amino}ethyl)benzamide], the IC50 was over 1000 nM.

Consider `O=C(Nc1ccc(Oc2ccc(F)cc2)cc1)[C@@H]1C[C@@H](c2ccccc2)CN1C(=O)Cn1cncn1` [Compound 78, (2S,4S)-1-(2-(1H-1,2,4-triazol-1-yl)acetyl)-N-(4-(4-fluorophenoxy)phenyl)-4-phenylpyrrolidine-2-carboxamide], for which the IC50 was in the range of 300 to 1000 nM.
